Source: patent US20230102554A1 (GB002, INC., priority 2019, published 2023)

Legend:
[1] = molecular target: T1, Human PDGFRα, cytoplasmic domain (GST-PDGFRα) (Homo sapiens, UniProt P16234); experiment: Human PDGFRα biochemical inhibition assay (off-chip Mobility Shift Assay)
T1 construct: made in house

[2] = molecular target: T2, Human PDGFRβ, cytoplasmic domain (GST-PDGFRβ) (Homo sapiens, UniProt P09619); experiment: Human PDGFRβ biochemical inhibition assay (off-chip Mobility Shift Assay)
T2 construct: made in house
T2 sequence (P09619 with tags, fused parts or gaps): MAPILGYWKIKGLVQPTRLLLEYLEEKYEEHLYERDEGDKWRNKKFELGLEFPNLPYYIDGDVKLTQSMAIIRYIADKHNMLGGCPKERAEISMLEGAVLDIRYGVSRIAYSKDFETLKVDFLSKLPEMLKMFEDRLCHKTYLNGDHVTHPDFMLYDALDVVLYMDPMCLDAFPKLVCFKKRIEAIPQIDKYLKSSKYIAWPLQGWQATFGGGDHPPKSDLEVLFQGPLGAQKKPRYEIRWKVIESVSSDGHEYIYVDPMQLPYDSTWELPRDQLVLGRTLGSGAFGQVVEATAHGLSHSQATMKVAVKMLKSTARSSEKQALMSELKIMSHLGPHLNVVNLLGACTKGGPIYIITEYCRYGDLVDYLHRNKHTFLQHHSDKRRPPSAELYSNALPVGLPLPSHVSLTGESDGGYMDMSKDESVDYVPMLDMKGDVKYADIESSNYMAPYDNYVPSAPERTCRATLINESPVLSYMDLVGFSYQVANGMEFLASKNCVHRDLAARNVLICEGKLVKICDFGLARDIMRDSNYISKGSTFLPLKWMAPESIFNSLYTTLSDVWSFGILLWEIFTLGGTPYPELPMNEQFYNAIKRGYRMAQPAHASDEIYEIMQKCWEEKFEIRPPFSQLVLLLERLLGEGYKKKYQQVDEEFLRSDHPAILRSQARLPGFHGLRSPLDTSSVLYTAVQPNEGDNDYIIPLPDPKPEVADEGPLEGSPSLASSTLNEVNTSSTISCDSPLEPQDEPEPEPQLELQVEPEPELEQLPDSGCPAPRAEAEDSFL
Method in brief: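 GST-tagged cytoplasmic domain (aa 557-1106) from baculovirus was incubated 1 h at room temperature with compound, CSKtide, ATP at Km and Mg²⁺ in HEPES buffer, pH 7.5. Phosphorylated and unphosphorylated peptide were separated by off-chip mobility shift, and the product ratio P/(P+S) gave percent inhibition.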

T1 sequence (P16234 550-1089 T674I): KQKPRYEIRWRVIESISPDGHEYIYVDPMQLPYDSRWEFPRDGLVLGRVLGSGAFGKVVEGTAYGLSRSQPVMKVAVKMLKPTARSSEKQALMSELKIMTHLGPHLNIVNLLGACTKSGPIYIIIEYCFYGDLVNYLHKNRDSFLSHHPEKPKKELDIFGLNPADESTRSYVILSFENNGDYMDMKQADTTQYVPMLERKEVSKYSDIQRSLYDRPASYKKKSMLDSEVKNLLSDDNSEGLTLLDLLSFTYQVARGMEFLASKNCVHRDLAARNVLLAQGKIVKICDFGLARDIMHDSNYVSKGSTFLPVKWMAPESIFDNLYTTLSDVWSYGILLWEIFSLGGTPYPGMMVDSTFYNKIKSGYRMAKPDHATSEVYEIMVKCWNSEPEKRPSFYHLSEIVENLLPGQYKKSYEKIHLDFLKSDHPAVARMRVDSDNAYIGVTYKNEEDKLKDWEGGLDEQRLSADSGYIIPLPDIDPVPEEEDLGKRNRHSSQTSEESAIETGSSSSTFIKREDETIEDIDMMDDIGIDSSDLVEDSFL

Row | IC50 [1] [nM] | IC50 [2] [nM] | Compound
1 | < 300 | < 300 | Cc1cncc(C(=O)Nc2cccc([C@H](C)Nc3cnc4[nH]c(-c5cnn(C)c5)nc4c3)c2)c1 [Compound 602, (S)-5-methyl-N-(3-(1-((2-(1-methyl-1H-pyrazol-4-yl)-3H-imidazo[4,5-b]pyridin-6-yl)amino)ethyl)phenyl) nicotinamide]
2 | ≥ 1000 | ≥ 1000 | CCn1cc2ncc(N[C@@H](C)c3cc(NC(=O)Cc4ccc(C(C)(C)O)cn4)ccc3F)nc2n1 [Compound 703, (S)-N-(3-(1-((2-ethyl-2H-pyrazolo[3,4-b]pyrazin-6-yl)amino)ethyl)-4-fluorophenyl)-2-(5-(2-hydroxypropan-2-yl)pyridin-2-yl)acetamide]
3 | < 300 | < 300 | Cc1cncc(C(=O)Nc2cccc([C@H](C)Nc3cnc4ccc(-c5cnn(C)c5)cc4n3)c2)c1 [Compound 42, (S)-5-methyl-N-(3-(1-((7-(1-methyl-1H-pyrazol-4-yl)quinoxalin-2-yl)amino)ethyl)phenyl)nicotinamide]
4 | < 300 | < 300 | Cc1cncc(NC(=O)Nc2cccc([C@H](C)Nc3cnc4cnn(C)c4n3)c2)c1 [Compound 731, (S)-1-(3-(1-((1-methyl-1H-pyrazolo[3,4-b]pyrazin-6-yl)amino)ethyl)phenyl)-3-(5-methylpyridin-3-yl)urea]
5 | < 300 | < 300 | CCOc1ncc(C(=O)Nc2ccc(F)c([C@H](C)Nc3cnc4cn(CC)nc4n3)c2)cc1C [Compound 316, (S)-6-ethoxy-N-(3-(1-((2-ethyl-2H-pyrazolo[3,4-b]pyrazin-6-yl)amino)ethyl)-4-fluorophenyl)-5-methylnicotinamide]
6 | < 300 | < 300 | Cc1c[nH]c2ncc(N[C@@H](C)c3cccc(NC(=O)c4cncc(C(F)F)c4)c3)nc12 [Compound 556, (S)-5-(difluoromethyl)-N-(3-(1-((7-methyl-5H-pyrrolo[2,3-6]pyrazin-2-yl)amino)ethyl)phenyl)nicotinamide]
7 | < 300 | ≥ 1000 | C[C@H](Nc1cnc2cnn(C)c2n1)c1cccc(NC(=O)Cc2cnn(C)c2)c1 [Compound 629, (S)-2-(1-methyl-1H-pyrazol-4-yl)-N-(3-(1-((1-methyl-1H-pyrazolo[3,4-b]pyrazin-6-yl)amino)ethyl)phenyl)acetamide]
8 | < 300 | < 300 | CCn1cc2ncc(N[C@@H](C)c3cccc(NC(=O)c4cnc5ccccc5c4)c3)nc2n1 [Compound 57, (S)-N-(3-(1-((2-ethyl-2H-pyrazolo[3,4-b]pyrazin-6-yl)amino)ethyl)phenyl)quinoline-3-carboxamide]
9 | < 300 | < 300 | C[C@H](Nc1cnc2cnn(C)c2n1)c1cc(NC(=O)c2ccc(OC(F)F)nc2)ccc1F [Compound 202, (S)-6-(difluoromethoxy)-N-(4-fluoro-3-(1-((1-methyl-1H-pyrazolo[3,4-b]pyrazin-6-yl)amino)ethyl)phenyl) nicotinamide]
10 | < 300 | < 300 | CC1OC(=O)c2ccc(C(=O)Nc3cccc([C@H](C)Nc4cnc5cnn(C)c5n4)c3)cc21 (stereo partly drawn) [Compound 76, 3-methyl-N-(3-((S)-1-((1-methyl-N-pyrazolo[3,4-b]pyrazin-6-yl)amino)ethyl)phenyl)-1-oxo-1,3-dihydroisobenzofuran-5-carboxamide]
11 | < 300 | < 300 | CCn1cc2ncc(N[C@@H](C)c3cc(NC(=O)Cc4ccc(F)cn4)ccc3C)nc2n1 [Compound 656, (S)-N-(3-(1-((2-ethyl-2H-pyrazolo[3,4-b]pyrazin-6-yl)amino)ethyl)-4-methylphenyl)-2-(5-fluoropyridin-2-yl) acetamide]
12 | < 300 | < 300 | Cc1c[nH]c2ncc(N[C@@H](C)c3cccc(NC(=O)c4cnn(C5CC5)c4)c3)nc12 [Compound 573, (s)-1-cyclopropyl-N-(3-(1-((7-methyl-5H-pyrrolo[2,3-b]pyrazin-2-yl)amino)ethyl)phenyl)-1H-pyrazole-4-carboxamide]
13 | < 300 | < 300 | CCn1cc2ncc(N[C@@H](C)c3cc(NC(=O)c4cnc(C(F)(F)F)c(C)c4)ccc3F)nc2n1 [Compound 335, (S)-N-(3-(1-((2-ethyl-2H-pyrazolo[3,4-b]pyrazin-6-yl)amino)ethyl)-4-fluorophenyl)-5-methyl-6-(trifluoromethyl) nicotinamide]
14 | < 300 | ≥ 1000 | CCn1cc2ncc(N[C@@H](C)c3cccc(NC(=O)Cc4ccc(C(F)(F)F)cn4)c3)nc2n1 [Compound 688, (S)-N-(3-(1-((2-ethyl-2H-pyrazolo[3,4-b]pyrazin-6-yl)amino)ethyl)phenyl)-2-(5-(trifluoromethyl)pyridin-2-yl) acetamide]
15 | < 300 | < 300 | CCn1cc2ncc(N[C@@H](C)c3cccc(NC(=O)c4ccc(CN5CCCC5)c(Cl)c4)c3)nc2n1 [Compound 418, (S)-3-chloro-N-(3-(1-((2-ethyl-2H-pyrazolo[3,4-b]pyrazin-6-yl)amino)ethyl)phenyl)-4-(pyrrolidin-1-ylmethyl) benzamide]
16 | < 300 | < 300 | COc1cncc(C(=O)Nc2cccc([C@H](C)Nc3cnc4cnn(C)c4n3)c2)c1 [Compound 104, (S)-5-methoxy-N-(3-(1-((1-methyl-1H-pyrazolo[3,4-b]pyrazin-6-yl)amino)ethyl)phenyl)nicotinamide]
17 | < 300 | < 300 | C[C@H](Nc1cnc2[nH]ccc2n1)c1cccc(NC(=O)c2ccc(OC(F)F)nc2)c1 [Compound 595, (S)-N-(3-(1-((5H-pyrrolo[2,3-b]pyrazin-2-yl)amino)ethyl)phenyl)-6-(difluoromethoxy)nicotinamide]
18 | 300 to 1000 | ≥ 1000 | CC[C@H](Nc1cnc2cn(CC)nc2n1)c1cccc(NC(=O)c2cncc(C)c2)c1 [Compound 408, (S)-N-(3-(1-((2-ethyl-2H-pyrazolo[3,4-b]pyrazin-6-yl)amino)propyl)phenyl)-5-methylnicotinamide]
19 | < 300 | < 300 | Cc1c[nH]c2ncc(N[C@@H](C)c3cccc(NC(=O)c4cc(C(C)C)on4)c3)nc12 [Compound 554, (S)-5-isopropyl-N-(3-(1-((7-methyl-5H-pyrrolo[2,3-b]pyrazin-2-yl)amino)ethyl)phenyl)isoxazole-3-carboxamide]
20 | < 300 | < 300 | Cc1cncc(C(=O)Nc2cccc([C@H](C)Nc3cnc4[nH]nc(C)c4c3)c2)c1 [Compound 14, (S)-5-methyl-N-(3-(1-((3-methyl-1H-pyrazolo[3,4-b]pyridin-5-yl)amino)ethyl)phenyl)nicotinamide]
21 | ≥ 1000 | ≥ 1000 | CCn1cc2ncc(N[C@@H](C)c3cccc(NC(=O)c4cnc5[nH]ncc5c4)c3)nc2n1 [Compound 60, (S)-N-(3-(1-((2-ethyl-2H-pyrazolo[3,4-b]pyrazin-6-yl)amino)ethyl)phenyl)-1H-pyrazolo[3,4-b]pyridine-5-carboxamide]
22 | 300 to 1000 | ≥ 1000 | CCn1cc2ncc(N[C@@H](C)c3cccc(NC(=O)Cc4cc(Cl)ccn4)c3)nc2n1 [Compound 676, (S)-2-(4-chloropyridin-2-yl)-N-(3-(1-((2-ethyl-2H-pyrazolo[3,4-b]pyrazin-6-yl)amino)ethyl)phenyl)acetamide]
23 | < 300 | < 300 | C[C@H](Nc1cnc2cnn(C)c2n1)c1cccc(NC(=O)c2cnn(CC3CC3)c2)c1 [Compound 152, (S)-1-(cyclopropylmethyl)-N-(3-(1-((1-methyl-1H-pyrazolo[3,4-b]pyrazin-6-yl)amino)ethyl)phenyl)-1H-pyrazole-4-carboxamide]
24 | < 300 | < 300 | CCn1cc2ncc(N[C@@H](C)c3cccc(NC(=O)c4ccc(CN5CC6(COC6)C5)c(C)c4)c3)nc2n1 [Compound 414, (S)-4-((2-oxa-6-azaspiro[3.3]heptan-6-yl)methyl)-N-(3-(1-((2-ethyl-2H-pyrazolo[3,4-b]pyrazin-6-yl)amino)ethyl)phenyl)-3-methylbenzamide]
25 | < 300 | < 300 | C[C@H](Nc1cnc2cn[nH]c2n1)c1cccc(NC(=O)c2cncc(C3COC3)c2)c1 [Compound 97, (S)-N-(3-(1-((1H-pyrazolo[3,4-b]pyrazin-6-yl)amino)ethyl)phenyl)-5-(oxetan-3-yl) nicotinamide]
26 | < 300 | < 300 | COc1cncc(C(=O)Nc2cccc([C@H](C)Nc3cnc4[nH]cc(-c5cnn(C)c5)c4n3)c2)c1 [Compound 586, (S)-5-methoxy-N-(3-(1-((7-(1-methyl-1H-pyrazol-4-yl)-5H-pyrrolo[2,3-b]pyrazin-2-yl)amino)ethyl)phenyl) nicotinamide]
27 | < 300 | 300 to 1000 | CCn1cc2ncc(N[C@@H](C)c3cccc(NC(=O)Nc4cncc(C)c4)c3)nc2n1 [Compound 732, (S)-1-(3-(1-((2-ethyl-2H-pyrazolo[3,4-b]pyrazin-6-yl)amino)ethyl)phenyl)-3-(5-methylpyridin-3-yl)urea]
28 | ≥ 1000 | ≥ 1000 | CCn1cc2ncc(N[C@@H](C)c3cccc(NC(=O)c4ccoc4)c3)nc2n1 [Compound 368, (S)-N-(3-(1-((2-ethyl-2H-pyrazolo[3,4-b]pyrazin-6-yl)amino)ethyl)phenyl)furan-3-carboxamide]
29 | < 300 | 300 to 1000 | CCn1cc2ncc(N[C@@H](C)c3cc(NC(=O)Cc4ccc(OC)cn4)ccc3C)nc2n1 [Compound 698, (S)-N-(3-(1-((2-ethyl-2H-pyrazolo[3,4-b]pyrazin-6-yl)amino)ethyl)-4-methylphenyl)-2-(5-methoxypyridin-2-yl) acetamide]
30 | < 300 | 300 to 1000 | Cc1c[nH]c2ncc(N[C@@H](C)c3cccc(NC(=O)c4cc(C(F)(F)F)nn4C)c3)nc12 [Compound 562, (S)-1-methyl-N-(3-(1-((7-methyl-5H-pyrrolo[2,3-b]pyrazin-2-yl)amino)ethyl)phenyl)-3-(trifluoromethyl)-1H-pyrazole-5-carboxamide]
